Assays:
Assay in all cases: Test E preemergence
Type in all cases: in vivo
Conditions in all cases: scale 0 to 100
corn (Zea mays) = test system: corn (Zea mays)
Method in brief: (§1)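 Greenhouse test: seeds in silt loam treated preemergence, or 1- to 4-leaf plants in peat-based potting medium treated postemergence, with surfactant-containing solvent formulation of compound; assessed 14 to 21 d later. Scores use a 0 to 100 scale where 100 means complete control.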

[1] = test system: nutsedge, yellow (yellow nutsedge, Cyperus esculentus)
Method in brief: as §1

[2] = test system: morningglory (Ipomoea coccinea)
Method in brief: as §1

[3] = test system: Panicum, fall (fall Panicum, Panicum dichotomiflorum)
Method in brief: as §1

[4] = test system: ryegrass, Italian (Italian ryegrass, Lolium multiflorum)
Method in brief: as §1

[5] = test system: crabgrass, Brazil (Brazilian crabgrass, Digitaria horizontalis)
Method in brief: as §1

[6] = test system: barnyardgrass (Echinochloa crus-galli)
Method in brief: as §1

[7] = test system: dayflower, VA (Virginia dayflower, Commelina virginica)
Method in brief: as §1

[8] = test system: velvetleaf (Abutilon theophrasti)
Method in brief: as §1

[9] = test system: goosegrass (Eleusine indica)
Method in brief: as §1

[10] = test system: horseweed (Conyza canadensis)
Method in brief: as §1

[11] = test system: beggarticks (hairy beggarticks, Bidens pilosa)
Method in brief: as §1

[12] = test system: surinam grass (Brachiaria decumbens)
Method in brief: as §1

[13] = test system: foxtail, green (green foxtail, Setaria viridis)
Method in brief: as §1

[14] = test system: ragweed (common ragweed, Ambrosia elatior)
Method in brief: as §1

[15] = test system: arrowleaf Sida (Sida rhombifolia)
Method in brief: as §1

[16] = test system: field bindweed (Convolvulus arvensis)
Method in brief: as §1

soybean (Glycine max) = test system: soybean (Glycine max)
Method in brief: as §1

Kochia (Kochia scoparia) = test system: Kochia (Kochia scoparia)
Method in brief: as §1

[17] = test system: pigweed, palmer (palmer pigweed, Amaranthus palmeri)
Method in brief: as §1

[18] = test system: foxtail, giant (giant foxtail, Setaria faberii)
Method in brief: as §1

`CN1CC(c2ccc(C(F)(F)F)cc2)C(C(=O)Nc2ccccc2S(C)(=O)=O)C1=O` (stereo not shown) [Compound 624] was tested, and the “Plant response rating: Corn” value (corn (Zea mays); 31 g ai/ha) was 0, the “Plant response rating: Corn” value (corn (Zea mays); 62 g ai/ha) was 0 and the “Plant response rating: Corn” value (corn (Zea mays); 125 g ai/ha) was 10. The “Plant response rating: Corn” value (corn (Zea mays); 250 g ai/ha) was 20, the “Plant response rating: Nutsedge, Yellow” value ([1]; 31 g ai/ha) was 0 and the “Plant response rating: Nutsedge, Yellow” value ([1]; 62 g ai/ha) was 0. The “Plant response rating: Nutsedge, Yellow” value ([1]; 125 g ai/ha) was 0, the “Plant response rating: Nutsedge, Yellow” value ([1]; 250 g ai/ha) was 10 and the “Plant response rating: Morningglory” value ([2]; 31 g ai/ha) was 10. The “Plant response rating: Morningglory” value ([2]; 62 g ai/ha) was 20, the “Plant response rating: Morningglory” value ([2]; 125 g ai/ha) was 50 and the “Plant response rating: Morningglory” value ([2]; 250 g ai/ha) was 40. The “Plant response rating: Panicum, Fall” value ([3]; 31 g ai/ha) was 0, the “Plant response rating: Panicum, Fall” value ([3]; 62 g ai/ha) was 0 and the “Plant response rating: Panicum, Fall” value ([3]; 125 g ai/ha) was 30. The “Plant response rating: Panicum, Fall” value ([3]; 250 g ai/ha) was 60, the “Plant response rating: Ryegrass, Italian” value ([4]; 31 g ai/ha) was 0 and the “Plant response rating: Ryegrass, Italian” value ([4]; 62 g ai/ha) was 0. For the same compound, the “Plant response rating: Ryegrass, Italian” value ([4]; 125 g ai/ha) was 10, the “Plant response rating: Ryegrass, Italian” value ([4]; 250 g ai/ha) was 15 and the “Plant response rating: Crabgrass, Brazil” value ([5]; 31 g ai/ha) was 80. The “Plant response rating: Crabgrass, Brazil” value ([5]; 62 g ai/ha) was 80, the “Plant response rating: Crabgrass, Brazil” value ([5]; 125 g ai/ha) was 95 and the “Plant response rating: Crabgrass, Brazil” value ([5]; 250 g ai/ha) was 100. For the same compound, the “Plant response rating: Barnyardgrass” value ([6]; 31 g ai/ha) was 0, the “Plant response rating: Barnyardgrass” value ([6]; 62 g ai/ha) was 30 and the “Plant response rating: Barnyardgrass” value ([6]; 125 g ai/ha) was 50. The “Plant response rating: Barnyardgrass” value ([6]; 250 g ai/ha) was 65, the “Plant response rating: Dayflower, VA” value ([7]; 31 g ai/ha) was 0 and the “Plant response rating: Dayflower, VA” value ([7]; 62 g ai/ha) was 0. The “Plant response rating: Dayflower, VA” value ([7]; 125 g ai/ha) was 30, the “Plant response rating: Dayflower, VA” value ([7]; 250 g ai/ha) was 50 and the “Plant response rating: Velvetleaf” value ([8]; 31 g ai/ha) was 0. The “Plant response rating: Velvetleaf” value ([8]; 62 g ai/ha) was 0, the “Plant response rating: Velvetleaf” value ([8]; 125 g ai/ha) was 10 and the “Plant response rating: Velvetleaf” value ([8]; 250 g ai/ha) was 20. The “Plant response rating: Goosegrass” value ([9]; 31 g ai/ha) was 50, the “Plant response rating: Goosegrass” value ([9]; 62 g ai/ha) was 75 and the “Plant response rating: Goosegrass” value ([9]; 125 g ai/ha) was 80. For the same compound, the “Plant response rating: Goosegrass” value ([9]; 250 g ai/ha) was 100, the “Plant response rating: Horseweed” value ([10]; 31 g ai/ha) was 30 and the “Plant response rating: Horseweed” value ([10]; 62 g ai/ha) was 90. The “Plant response rating: Horseweed” value ([10]; 250 g ai/ha) was 85, the “Plant response rating: Beggarticks” value ([11]; 31 g ai/ha) was 20 and the “Plant response rating: Beggarticks” value ([11]; 62 g ai/ha) was 25. For the same compound, the “Plant response rating: Beggarticks” value ([11]; 125 g ai/ha) was 40, the “Plant response rating: Beggarticks” value ([11]; 250 g ai/ha) was 50 and the “Plant response rating: Surinam Grass” value ([12]; 31 g ai/ha) was 20. The “Plant response rating: Surinam Grass” value ([12]; 62 g ai/ha) was 30, the “Plant response rating: Surinam Grass” value ([12]; 125 g ai/ha) was 40 and the “Plant response rating: Surinam Grass” value ([12]; 250 g ai/ha) was 70. The “Plant response rating: Foxtail, Green” value ([13]; 31 g ai/ha) was 20, the “Plant response rating: Foxtail, Green” value ([13]; 62 g ai/ha) was 20 and the “Plant response rating: Foxtail, Green” value ([13]; 125 g ai/ha) was 65. For the same compound, the “Plant response rating: Foxtail, Green” value ([13]; 250 g ai/ha) was 75, the “Plant response rating: Ragweed” value ([14]; 31 g ai/ha) was 20 and the “Plant response rating: Ragweed” value ([14]; 62 g ai/ha) was 20. For the same compound, the “Plant response rating: Ragweed” value ([14]; 125 g ai/ha) was 30, the “Plant response rating: Ragweed” value ([14]; 250 g ai/ha) was 30 and the “Plant response rating: Arrowleaf Sida” value ([15]; 31 g ai/ha) was 50. For the same compound, the “Plant response rating: Arrowleaf Sida” value ([15]; 62 g ai/ha) was 50, the “Plant response rating: Arrowleaf Sida” value ([15]; 125 g ai/ha) was 40 and the “Plant response rating: Arrowleaf Sida” value ([15]; 250 g ai/ha) was 60. For the same compound, the “Plant response rating: Field Bindweed” value ([16]; 31 g ai/ha) was 0, the “Plant response rating: Field Bindweed” value ([16]; 62 g ai/ha) was 10 and the “Plant response rating: Field Bindweed” value ([16]; 125 g ai/ha) was 5. For the same compound, the “Plant response rating: Field Bindweed” value ([16]; 250 g ai/ha) was 10, the “Plant response rating: Soybean” value (soybean (Glycine max); 31 g ai/ha) was 0 and the “Plant response rating: Soybean” value (soybean (Glycine max); 62 g ai/ha) was 10. For the same compound, the “Plant response rating: Soybean” value (soybean (Glycine max); 125 g ai/ha) was 20, the “Plant response rating: Soybean” value (soybean (Glycine max); 250 g ai/ha) was 10 and the “Plant response rating: Kochia” value (Kochia (Kochia scoparia); 31 g ai/ha) was 0. The “Plant response rating: Kochia” value (Kochia (Kochia scoparia); 125 g ai/ha) was 0, the “Plant response rating: Kochia” value (Kochia (Kochia scoparia); 250 g ai/ha) was 30 and the “Plant response rating: Pigweed, Palmer” value ([17]; 31 g ai/ha) was 0. The “Plant response rating: Pigweed, Palmer” value ([17]; 62 g ai/ha) was 25, the “Plant response rating: Pigweed, Palmer” value ([17]; 125 g ai/ha) was 20 and the “Plant response rating: Pigweed, Palmer” value ([17]; 250 g ai/ha) was 30. The “Plant response rating: Foxtail, Giant” value ([18]; 31 g ai/ha) was 20, the “Plant response rating: Foxtail, Giant” value ([18]; 62 g ai/ha) was 50 and the “Plant response rating: Foxtail, Giant” value ([18]; 125 g ai/ha) was 70. For the same compound, the “Plant response rating: Foxtail, Giant” value ([18]; 250 g ai/ha) was 85.

Source: patent US12077503B2, “Substituted cyclic amides and their use as herbicides” (FMC CORPORATION, priority 2015, dated 2024)
